Laboratory results: patent US20100105694A1, “SUBSTITUTED PYRAZINONE DERIVATIVES FOR USE AS A MEDICINE” (priority 2006, published 2010)
Where two headings read alike, the source gives them in different places.

Key:
[1] = biological target: T1, human adrenergic-α2A receptor (Homo sapiens, UniProt P08913); assay: Radioligand binding experiment for hα2A receptor ([3H]raulwolscine, CHO cell membranes)
T1 construct: expressed in transfected cells; host or cells: CHO cells, stably transfected; membranes
T1 sequence (P08913 1-465): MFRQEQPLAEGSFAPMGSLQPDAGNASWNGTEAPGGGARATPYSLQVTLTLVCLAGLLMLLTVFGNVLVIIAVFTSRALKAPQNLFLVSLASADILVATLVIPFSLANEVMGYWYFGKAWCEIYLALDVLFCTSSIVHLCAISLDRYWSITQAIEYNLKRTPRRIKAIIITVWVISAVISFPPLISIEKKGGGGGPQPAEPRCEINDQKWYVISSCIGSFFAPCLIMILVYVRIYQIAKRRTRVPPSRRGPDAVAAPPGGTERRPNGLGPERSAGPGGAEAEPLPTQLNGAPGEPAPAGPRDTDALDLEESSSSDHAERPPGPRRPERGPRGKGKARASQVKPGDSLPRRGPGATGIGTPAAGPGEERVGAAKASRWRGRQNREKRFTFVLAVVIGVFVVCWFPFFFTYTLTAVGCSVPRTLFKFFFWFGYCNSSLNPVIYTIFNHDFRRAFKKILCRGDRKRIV
Procedure: (§1) The interaction of a compound of Formula (I) with α2C-adrenoceptor receptors was assessed in in vitro radioligand binding experiments. In general, a low concentration of a radioligand with a high binding affinity for a particular receptor or transporter is incubated with a sample of a tissue preparation enriched in a particular receptor or transporter or with a preparation of cells expressing cloned human receptors in a buffered medium. During the incubation, the radioligand binds to the receptor or transporter. When equilibrium of binding is reached, the receptor bound radioactivity is separated from the non-bound radioactivity, and the receptor- or transporter-bound activity is counted. The interaction of the test compounds with the receptor is assessed in competition binding experiments. Various concentrations of the test compound are added to the incubation mixture containing the receptor- or transporter preparation and the radioligand. The test compound in proportion to its binding affinity and its concentration inhibits binding of the radioligand. The radioligand used for hα2A and hα2C receptor binding was [^3H]-raulwolscine.
(§2) CHO cells, stabile transfected with human adrenergic-α2A and α2C receptor cDNA, were cultured in Dulbecco's Modified Eagle's Medium (DMEM)/Nutrient mixture Ham's F12 (ratio 1:1) (Gibco, Gent-Belgium) supplemented with 10% heat inactivated fetal calf serum (Life Technologies, Merelbeke-Belgium) and antibiotics (100 IU/ml penicillin G, 100 μg/ml streptomycin sulphate, 110 μg/ml pyruvic acid and 100 μg/ml L-glutamine). One day before collection, cells were induced with 5 mM sodiumbutyrate. Upon 80-90% of confluence, cells were scraped in phosphate buffered saline without Ca^2+ and Mg^2+ and collected by centrifugation at 1500×g for 10 minutes. The cells were homogenised in Tris-HCl 50 mM using an Ultraturrax homogenizer and centrifuged for 10 minutes at 23,500×g. The pellet was washed once by resuspension and rehomogenization and the final pellet was resuspended in Tris-HCl, divided in 1 ml aliquots and stored at −70° C.
(§3) Membranes were thawed and re-homogenized in incubation buffer (glycylglycine 25 mM, pH 8.0). […] Filters were rinsed extensively with ice-cold rinsing buffer (Tris-HCl 50 mM pH 7.4). Filter-bound radioactivity was determined by scintillation counting in a Topcount (Packard, Meriden, Conn.) and results were expressed as counts per minute (cpm). Non-specific binding was determined in the presence of 1 μM oxymetazoline for the hα2A receptor and 1 μM spiroxatrine for hα2C receptors.
(§4) Data from assays in the presence of compound were calculated as a percentage of total binding measured in the absence of test compound. Inhibition curves, plotting percent of total binding versus the log value of the concentration of the test compound, were automatically generated, and sigmoidal inhibition curves were fitted using non-linear regression. The pIC50 values of test compounds were derived from individual curves.

[2] = biological target: T2, 5HT-Transporter (Homo sapiens, UniProt P31645); assay: Binding experiment for the 5HT-transporter ([3H]paroxetine, human platelet membranes)
T2 construct: Human platelet membranes (Oceanix Biosciences Corporation, Hanover, Md., USA) were thawed; tissue Oceanix Biosciences Corporation; host or cells: human platelet membranes
T2 sequence (P31645 whole entry): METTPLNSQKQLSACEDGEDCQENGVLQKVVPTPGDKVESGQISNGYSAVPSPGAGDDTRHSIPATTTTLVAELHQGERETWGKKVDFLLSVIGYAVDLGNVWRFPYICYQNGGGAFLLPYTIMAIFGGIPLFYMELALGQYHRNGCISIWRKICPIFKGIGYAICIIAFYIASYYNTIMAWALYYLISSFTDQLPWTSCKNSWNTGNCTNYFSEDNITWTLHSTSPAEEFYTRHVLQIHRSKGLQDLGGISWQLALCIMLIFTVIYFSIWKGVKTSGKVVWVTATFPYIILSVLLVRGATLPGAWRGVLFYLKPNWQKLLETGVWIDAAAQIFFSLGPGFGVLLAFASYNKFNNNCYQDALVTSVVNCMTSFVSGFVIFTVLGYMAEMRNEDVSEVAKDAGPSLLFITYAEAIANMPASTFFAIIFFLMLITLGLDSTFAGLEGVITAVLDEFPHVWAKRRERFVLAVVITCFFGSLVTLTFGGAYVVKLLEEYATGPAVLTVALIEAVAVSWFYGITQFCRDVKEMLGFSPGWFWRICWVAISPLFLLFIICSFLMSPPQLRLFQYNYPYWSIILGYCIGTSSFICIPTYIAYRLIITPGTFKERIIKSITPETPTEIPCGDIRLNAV
Procedure: as §1
Human platelet membranes (Oceanix Biosciences Corporation, Hanover, Md., USA) were thawed, diluted in buffer (Tris-HCl 50 mM, 120 mM NaCl and 5 mM KCl) and quickly (max 3 s) homogenised with an Ultraturrax homogenizer. […] Incubation was stopped by rapid filtration of the incubation mixture over GF/B filters, pre-wetted with 0.1% polyethyleneamine, using a Filtermate196 harvester (Packard, Meriden, Conn.). Filters were rinsed extensively with ice-cold buffer and radioactivity on the filters was counted in a Topcount liquid scintillation counter (Packard, Meriden, Conn.). Data were expressed as cpm. Imipramine (at 1 μM final concentration) was used to determine the non-specific binding.
as §4

[3] = biological target: T3, human adrenergic-α2C receptor (Homo sapiens, UniProt P18825); assay: Radioligand binding experiment for α2C-adrenoceptor ([3H]raulwolscine, CHO cell membranes)
T3 construct: expressed in transfected cells; host or cells: CHO cells, stably transfected; membranes
T3 sequence (P18825 1-462): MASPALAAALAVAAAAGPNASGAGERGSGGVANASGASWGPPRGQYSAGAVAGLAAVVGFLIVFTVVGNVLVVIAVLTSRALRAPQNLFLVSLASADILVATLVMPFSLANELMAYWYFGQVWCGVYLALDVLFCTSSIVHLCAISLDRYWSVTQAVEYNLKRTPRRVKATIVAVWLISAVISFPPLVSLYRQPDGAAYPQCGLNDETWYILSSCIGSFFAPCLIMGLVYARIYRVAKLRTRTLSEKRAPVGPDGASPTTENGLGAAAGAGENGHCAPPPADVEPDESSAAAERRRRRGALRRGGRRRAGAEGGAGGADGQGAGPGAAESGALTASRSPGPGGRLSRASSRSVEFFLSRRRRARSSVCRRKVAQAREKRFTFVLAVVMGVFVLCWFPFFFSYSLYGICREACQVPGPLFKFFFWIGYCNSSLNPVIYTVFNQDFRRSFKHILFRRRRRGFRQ
Procedure: as §1, §2, §3, §4

[4] = [3H]raulwolscine 1 nM, membranes of CHO cells transfected with human α2A receptor, read-out: h-α2A pIC50 (converted)
[5] = [3H]paroxetine 0.5 nM, read-out: h-5HTT pIC50 (converted)
[6] = [3H]raulwolscine 1 nM, membranes of CHO cells transfected with human α2C receptor, read-out: h-α2C pIC50 (converted)
[7] = h-5HTT pIC50, [3H]paroxetine 0.5 nM

| SMILES | IC50 [1, 4] [nM] | IC50 [2, 5] [nM] | IC50 [3, 6] [nM] | IC50 [1] [nM] | IC50 [3] [nM] | IC50 [2, 7] [nM] |
| --- | --- | --- | --- | --- | --- | --- |
| O=c1c(NC2CCN(Cc3ccccc3)CC2)nccn1CCN1CCCCC1 [Compound 5-4] | 3160 | > 10000 |  |  |  |  |
| NCc1ccc(Cn2ccnc(NC3CCN(CCc4ccccc4)CC3)c2=O)cc1 [Compound 6-2] |  | 3980 |  |  |  |  |
| O=c1c(NC2CCN(Cc3ccc(OCc4ccccc4)cc3)CC2)nccn1CCN1CCCCC1 [Compound 11-4] | 1580 | > 10000 | 794 |  |  |  |
| O=c1c(NC2CCN(Cc3ccc(-c4ccccc4)cc3)CC2)nccn1Cc1ccc(Br)cc1 [Compound 1-8] | 1000 | 631 | 794 |  |  |  |
| O=c1c(N2CCN(Cc3ccccc3)CC2)nccn1C/C=C/c1ccccc1 [Compound 10-5] | 316 | > 10000 | 631 |  |  |  |
| CN(CCc1ccccc1)C1CCN(c2nccn(CCC(=O)c3ccccc3)c2=O)CC1 [Compound 8-2] | 316 | > 10000 | 63.1 |  |  |  |
| O=c1c(NC2CCN(CCCc3ccccc3)CC2)nccn1Cc1cccc(Br)c1 [Compound 7-12] | 2000 | 2510 | 501 |  |  |  |
| CC(C)(C)OC(=O)NCc1ccc(Cn2ccnc(N3CCN(Cc4ccccc4)CC3)c2=O)cc1 [Compound 10-2] | 251 | > 10000 | 316 |  |  |  |
| CC(C)(C)OC(=O)NCc1ccc(Cn2ccnc(NC3CCN(CCCc4ccccc4)CC3)c2=O)cc1 [Compound 7-3] | 1580 | 1580 | 398 |  |  |  |
| O=c1[nH]ccnc1NC1CCN(CCCc2ccccc2)CC1 [Compound 7-7] |  |  |  | 1580 | 794 | > 10000 |
| CCCn1ccnc(NC2CCN(CCCc3ccccc3)CC2)c1=O [Compound 7-8] | 794 | 5010 | 501 |  |  |  |
| CC(C)(C)OC(=O)NCCCn1ccnc(NC2CCN(CCc3ccccc3)CC2)c1=O [Compound 6-4] | 3160 | > 10000 | 631 |  |  |  |
| NCCCn1ccnc(NC2CCN(CC(c3ccccc3)c3ccccc3)CC2)c1=O [Compound 9-1] | 1000 |  | 501 |  |  |  |
| O=c1c(NC2CCN(CC(c3ccccc3)c3ccccc3)CC2)nccn1Cc1ccccc1Br [Compound 9-7] | 1000 | > 10000 | 631 |  |  |  |
| O=c1c(NC2CCN(CCc3ccccc3)CC2)nccn1Cc1ccccc1Br [Compound 6-7] | 794 | 5010 | 398 |  |  |  |
| O=C1c2ccccc2C(=O)N1CCCn1ccnc(NC2CCN(CC(c3ccccc3)c3ccccc3)CC2)c1=O [Compound 9-6] | 1260 | 6310 | 398 |  |  |  |
| O=C1c2ccccc2C(=O)N1CCCn1ccnc(N2CCN(Cc3cccc(-c4ccccc4)c3)CC2)c1=O [Compound 3-9] | 1580 | 794 | 794 |  |  |  |
| CC(C)(C)OC(=O)NCCCn1ccnc(NC2CCN(CC(c3ccccc3)c3ccccc3)CC2)c1=O [Compound 9-3] | 3980 | > 10000 | 316 |  |  |  |
| COc1ccc(-c2nnc(Cn3ccnc(N4CCN(CCc5ccccc5)CC4)c3=O)o2)cc1 [Compound 10-12] | 1260 | > 10000 | 501 |  |  |  |

| SMILES | IC50 [1, 4] [nM] | IC50 [2, 5] [nM] | IC50 [3, 6] [nM] | IC50 [1] [nM] | IC50 [3] [nM] | IC50 [2, 7] [nM] |
| --- | --- | --- | --- | --- | --- | --- |
| O=c1c(N2CCN(CCc3ccccc3)CC2)nccn1C/C=C/c1ccccc1 [Compound 10-6] | 1000 | 5010 | 501 |  |  |  |
| CC(C)(C)OC(=O)NCc1ccc(Cn2ccnc(N3CCN(CCc4ccccc4)CC3)c2=O)cc1 [Compound 10-3] | 794 |  | 316 |  |  |  |
| O=C1c2ccccc2C(=O)N1CCCn1ccnc(N2CCN(Cc3ccc(-c4ccccc4)cc3)CC2)c1=O [Compound 2-2] | 1000 | 200 | 316 |  |  |  |
| CN(C)CCCn1ccnc(NC2CCN(Cc3ccc(OCc4ccccc4)cc3)CC2)c1=O [Compound 11-2] | 794 | > 10000 | 794 |  |  |  |
| O=C(Cn1ccnc(NC2CCN(CCCc3ccccc3)CC2)c1=O)c1ccccc1 [Compound 7-14] | 501 | 3980 | 398 |  |  |  |
| O=C1c2ccccc2C(=O)N1CCCn1ccnc(NC2CCN(CCc3ccccc3)CC2)c1=O [Compound 6-6] | 3980 | 1580 | 158 |  |  |  |
| CC(C)(C)C(=O)Cn1ccnc(NC2CCN(CCCc3ccccc3)CC2)c1=O [Compound 7-10] | 1260 | > 10000 | 316 |  |  |  |
| O=C1c2ccccc2C(=O)N1CCCn1ccnc(NC2CCN(Cc3ccccc3)CC2)c1=O [Compound 5-5] | 5010 | 3980 | 398 |  |  |  |
| O=c1c(NC2CCN(CCCc3ccccc3)CC2)nccn1CCN1CCCCC1 [Compound 7-4] | 1580 | > 10000 | 126 |  |  |  |
| O=c1c(N2CCN(Cc3cccc(-c4ccccc4)c3)CC2)nccn1Cc1ccc2ccccc2c1 [Compound 3-7] | 200 | 5010 |  |  |  |  |
| NCc1ccc(CN(c2nccn(Cc3ccc(CN)cc3)c2=O)C2CCN(Cc3ccccc3)CC2)cc1 [Compound 5-3] | 1000 | > 10000 |  |  |  |  |
| O=C(Cn1ccnc(N2CCN(CCc3ccccc3)CC2)c1=O)c1ccccc1 [Compound 10-7] | 2000 | > 10000 |  |  |  |  |
| NCc1ccc(Cn2ccnc(NC3CCN(Cc4ccccc4)CC3)c2=O)cc1 [Compound 5-1] |  | 7940 |  |  |  |  |
| C=CCn1ccnc(N2CCN(Cc3cccc(-c4ccccc4)c3)CC2)c1=O [Compound 3-4] | 200 |  | 794 |  |  |  |
| NCCCn1ccnc(NC2CCN(CCc3ccccc3)CC2)c1=O [Compound 6-1] |  |  |  | 3980 |  | > 10000 |
| O=c1c(N2CCN(Cc3cccc(-c4ccccc4)c3)CC2)nccn1Cc1ccco1 [Compound 3-8] | 79.4 |  | 316 |  |  |  |
| COc1ccc(-c2nnc(Cn3ccnc(N4CCN(Cc5cccc(-c6ccccc6)c5)CC4)c3=O)o2)cc1 [Compound 3-10] | 501 | 6310 |  |  |  |  |
| O=c1c(N2CCN(Cc3ccccc3)CC2)nccn1Cc1ccc2ccccc2c1 [Compound 10-9] | 126 |  | 794 |  |  |  |
